The nature of this series: method code SF, from DOI: 10.1007/978-3-0348-5795-6_10, PMID: 954948.

With `O=C(c1ccccc1)c1ccc(N=C=S)cc1`, the logP came out at 4.88.

Regarding `S=C=Nc1ccc(/N=N/c2ccccc2)cc1`, the logP stood at 5.55.

Regarding `S=C=Nc1ccc(Oc2ccccc2)cc1`, the logP amounted to 4.75.

Molecule `S=C=NC(c1ccccc1)(c1ccccc1)c1ccccc1` displayed a log partition coefficient (logP) of 7.02.

In turn, `Oc1ccc(N=C=S)cc1` displayed a logP of 2.74.

`S=C=Nc1cccc2ccccc12` displayed a logP of 4.34.

`O=S(c1ccccc1)c1ccc(N=C=S)cc1` (centres undefined) came in with a logP of 4.4. The logP values of the last two molecules are within 0.2 log units of each other.

`CCN=C=S` showed a logP of 1.47.

`S=C=Nc1ccc(-c2ccccc2)cc1` returned a logP of 4.66.

On to `O=C(Oc1ccc(N=C=S)cc1)c1ccccc1`, for which the lipophilicity (logP) worked out at 4.9.

In turn, `S=C=Nc1ccc2ccccc2c1` displayed a logP of 4.34.

Regarding `S=C=NCCc1ccccc1`, the log partition coefficient (logP) stood at 3.47.

`S=C=Nc1ccc(Nc2ccccc2)cc1` came in with a lipophilicity (logP) of 4.94.

Turning to `S=C=NCc1cccc2ccccc12`, the logP is 4.42.

On to `S=C=Nc1ccc(Cc2ccccc2)cc1`, for which the logP came out at 4.4.

On to `S=C=NC(c1ccccc1)c1ccccc1`, for which the log partition coefficient (logP) was found to be 5.09.

In the case of `CC(N=C=S)c1ccccc1` (centres undefined), the log partition coefficient (logP) was 3.46.

Regarding `S=C=Nc1ccc2cc3ccccc3cc2c1`, the logP is 5.7.

Molecule `S=C=NCc1ccccc1` gave a lipophilicity (logP) of 3.16.

One may read the logP as a log measure of how a compound divides between an organic and an aqueous phase.

Values taken from the SangsterLogP compilation.
